According to PubChem BioAssay AID328 (DTP/NCI, 2004):
Several values for one entry are separate records, joined by “and”; a condition that tells them apart may be missing. Equal entries are not always repeated. Toxic doses and inconclusive results are not listed.

Test system: BDF1 mice, P388 leukemia ip, median survival T/C
Experiment: NCI In Vivo Anticancer Drug Screen. Data for tumor model P388 Leukemia (intraperitoneal) in B6D2F1 (BDF1) mice
Settings: endpoint: median survival time, higher = longer survival
Procedure: The antitumor activity of compounds was measured in mice bearing transplantable tumors. Survival or tumor size were measured and the results are expressed as the measurement made in the treated group (T) divided by the measurement made in the vehicle treated control group (C). The tumor model used in this assay is P388 Leukemia (intraperitoneal) in B6D2F1 (BDF1) mice

[1] = dose: 25.0 mg/kg/injection, schedule: Q04DX003 (ip), vehicle: saline with Tween-80
[2] = dose: 50.0 mg/kg/injection, schedule: Q01DX009 (ip), vehicle: saline with Tween-80
[3] = dose: 100.0 mg/kg/injection, schedule: Q01DX009 (ip), vehicle: saline with Tween-80
[4] = dose: 200.0 mg/kg/injection, schedule: Q01DX009 (ip), vehicle: saline with Tween-80
[5] = dose: 400.0 mg/kg/injection, schedule: Q01DX009 (ip), vehicle: saline with Tween-80
[6] = dose: 100.0 mg/kg/injection, schedule: Q04DX003 (ip), vehicle: Klucel (hydroxypropylcellulose) (HPC)
[7] = dose: 200.0 mg/kg/injection, schedule: Q04DX003 (ip), vehicle: Klucel (hydroxypropylcellulose) (HPC)
[8] = dose: 400.0 mg/kg/injection, schedule: Q04DX003 (ip), vehicle: Klucel (hydroxypropylcellulose) (HPC)
[9] = dose: 12.5 mg/kg/injection, schedule: Q01DX009 (ip), vehicle: Klucel (hydroxypropylcellulose) (HPC)
[10] = dose: 25.0 mg/kg/injection, schedule: Q01DX009 (ip), vehicle: Klucel (hydroxypropylcellulose) (HPC)
[11] = dose: 50.0 mg/kg/injection, schedule: Q01DX009 (ip), vehicle: Klucel (hydroxypropylcellulose) (HPC)
[12] = dose: 100.0 mg/kg/injection, schedule: Q01DX009 (ip), vehicle: Klucel (hydroxypropylcellulose) (HPC)
[13] = dose: 200.0 mg/kg/injection, schedule: Q01DX009 (ip), vehicle: Klucel (hydroxypropylcellulose) (HPC)
[14] = dose: 400.0 mg/kg/injection, schedule: Q01DX009 (ip), vehicle: Klucel (hydroxypropylcellulose) (HPC)
[15] = dose: 100.0 mg/kg/injection, schedule: Q04DX003 (ip), vehicle: saline with Tween-80
[16] = dose: 200.0 mg/kg/injection, schedule: Q04DX003 (ip), vehicle: saline with Tween-80
[17] = dose: 400.0 mg/kg/injection, schedule: Q04DX003 (ip), vehicle: saline with Tween-80

O=[N+]([O-])/C=C/c1ccc2ccccc2n1
T/C (dose: 1.25 mg/kg/injection, schedule: Q01DX009 (ip), vehicle: saline with Tween-80): 103 % of control
T/C (dose: 2.5 mg/kg/injection, schedule: Q01DX009 (ip), vehicle: saline with Tween-80): 92 % of control and 94 % of control
T/C (dose: 5.0 mg/kg/injection, schedule: Q01DX009 (ip), vehicle: saline with Tween-80): 94 % of control and 110 % of control
T/C (dose: 10.0 mg/kg/injection, schedule: Q01DX009 (ip), vehicle: saline with Tween-80): 94 % of control and 115 % of control
T/C (dose: 12.5 mg/kg/injection, schedule: Q04DX003 (ip), vehicle: saline with Tween-80): 111 % of control
T/C (dose: 20.0 mg/kg/injection, schedule: Q01DX009 (ip), vehicle: saline with Tween-80): 94 % of control
T/C [1]: 102 % of control

Cc1[nH]c(N)nc(=S)c1CCC(=O)Nc1ccc(C(=O)NC(CCC(=O)O)C(=O)O)cc1 (configuration not stated)
T/C [2]: 91 % of control
T/C [3]: 99 % of control
T/C [4]: 101 % of control
T/C [5]: 106 % of control

CCOC(=O)Cn1cnc2cc(Cl)c([N+](=O)[O-])cc2c1=O
T/C (dose: 50.0 mg/kg/injection, schedule: Q04DX003 (ip), vehicle: Klucel (hydroxypropylcellulose) (HPC)): 96 % of control
T/C [6]: 104 % of control
T/C [7]: 102 % of control
T/C [8]: 109 % of control

CC(=O)[C@H]1CC[C@H]2[C@@H]3C[C@H](F)C4=CC(=O)CC[C@]4(C)[C@@]3(F)[C@@H](O)C[C@]12C
T/C (dose: 12.0 mg/kg/injection, schedule: Q01DX009 (ip), vehicle: Klucel (hydroxypropylcellulose) (HPC)): 122 % of control
T/C [9]: 115 % of control
T/C [10]: 100 % of control and 103 % of control
T/C [11]: 90 % of control and 100 % of control
T/C [6]: 95 % of control and 113 % of control
T/C [7]: 95 % of control and 113 % of control
T/C [8]: 95 % of control and 104 % of control and 109 % of control

CCOC1C=CC(OC(C)=O)C(COC(C)=O)O1 (configuration not stated)
T/C [12]: 90 % of control
T/C [6]: 100 % of control
T/C [13]: 86 % of control
T/C [7]: 104 % of control
T/C [14]: 100 % of control
T/C [8]: 100 % of control

CC(=O)OC(c1ccccc1)C(Cl)(Cl)Cl (configuration not stated)
T/C [15]: 100 % of control
T/C [16]: 105 % of control
T/C [17]: 110 % of control

CC(=O)N(C)c1ccc(N)cc1
T/C (dose: 100.0 mg/kg/injection, schedule: Q04DX003 (ip), vehicle: saline): 100 % of control
T/C (dose: 200.0 mg/kg/injection, schedule: Q04DX003 (ip), vehicle: saline): 100 % of control
T/C (dose: 400.0 mg/kg/injection, schedule: Q04DX003 (ip), vehicle: saline): 109 % of control

CC(NC(=O)c1ccc(Cl)cc1Cl)c1ccccc1 (configuration not stated)
T/C (dose: 100.0 mg/kg/injection, schedule: Q01DX001 (ip), vehicle: other): 100 % of control
T/C (dose: 400.0 mg/kg/injection, schedule: Q01DX001 (ip), vehicle: other): 95 % of control

CC(=O)C(C#N)c1ccccc1 (configuration not stated)
T/C [9]: 118 % of control
T/C [10]: 109 % of control
T/C [11]: 90 % of control

C[Si](C)(C)O/C=C1/CCOC1=O
T/C [2]: 102 % of control
T/C [3]: 110 % of control
T/C [4]: 119 % of control
T/C [5]: 117 % of control

C=C(C)C(=O)OC1C(C(C)CCCO)=C(CO)CC2OC(=O)C(=C)C21 (configuration not stated)
T/C (dose: 2.0 mg/kg/injection, schedule: Q01DX009 (ip), vehicle: saline + alcohol): 104 % of control
T/C (dose: 4.0 mg/kg/injection, schedule: Q01DX009 (ip), vehicle: saline + alcohol): 109 % of control
T/C (dose: 8.0 mg/kg/injection, schedule: Q01DX009 (ip), vehicle: saline + alcohol): 114 % of control
T/C (dose: 16.0 mg/kg/injection, schedule: Q01DX009 (ip), vehicle: saline + alcohol): 109 % of control
T/C (dose: 32.0 mg/kg/injection, schedule: Q01DX009 (ip), vehicle: saline + alcohol): 152 % of control

O=C(O)c1ccc(COc2ccc([N+](=O)[O-])cc2Cl)cc1
T/C [2]: 91 % of control
T/C [3]: 100 % of control
T/C [4]: 100 % of control

c1ccc2c(SSc3cccc4ccccc34)cccc2c1
T/C [1]: 108 % of control
T/C (dose: 50.0 mg/kg/injection, schedule: Q04DX003 (ip), vehicle: saline with Tween-80): 108 % of control
T/C [15]: 112 % of control
T/C [16]: 103 % of control

Cc1ccc(-c2nc3ccccc3c(=O)n2/N=C/c2cccc3ccccc23)cc1
T/C [2]: 90 % of control
T/C [3]: 89 % of control

CC(=O)Oc1cc(OC(C)=O)c2c(ccc3ccccc32)c1
T/C [15]: 93 % of control
T/C [16]: 97 % of control
T/C [17]: 93 % of control

CC1SC(c2ccccc2)N(c2ccccc2)C1=O (configuration not stated)
T/C [12]: 104 % of control
T/C [6]: 104 % of control
T/C [13]: 116 % of control
T/C [7]: 104 % of control
T/C [14]: 100 % of control
T/C [8]: 109 % of control

CNC(=S)N/N=C/C(C)=N/NC(=S)NC
T/C (dose: 1.6 mg/kg/injection, schedule: Q01DX009 (ip), vehicle: Klucel (hydroxypropylcellulose) (HPC)): 113 % of control
T/C (dose: 3.12 mg/kg/injection, schedule: Q01DX009 (ip), vehicle: Klucel (hydroxypropylcellulose) (HPC)): 104 % of control
T/C [9]: 104 % of control
T/C [11]: 100 % of control
T/C [13]: 100 % of control
T/C (dose: 125.0 micrograms/kg/injection, schedule: Q01DX009 (ip), vehicle: saline): 109 % of control
T/C (dose: 250.0 micrograms/kg/injection, schedule: Q01DX009 (ip), vehicle: saline): 109 % of control
T/C (dose: 500.0 micrograms/kg/injection, schedule: Q01DX009 (ip), vehicle: saline): 109 % of control
T/C (dose: 1000.0 micrograms/kg/injection, schedule: Q01DX009 (ip), vehicle: saline): 109 % of control

CC[n+]1cccc(NC(=O)c2ccc(NC(=O)c3ccc(C(=O)Nc4ccc(C(=O)Nc5ccc[n+](CC)c5)cc4)cc3)cc2)c1
T/C (dose: 0.44 mg/kg/injection, schedule: Q04DX003 (ip), vehicle: saline): 118 % of control
T/C (dose: 0.88 mg/kg/injection, schedule: Q01DX009 (ip), vehicle: saline): 150 % of control
T/C (dose: 1.32 mg/kg/injection, schedule: Q01DX009 (ip), vehicle: saline): 163 % of control
T/C (dose: 2.0 mg/kg/injection, schedule: Q01DX009 (ip), vehicle: saline): 190 % of control
T/C (dose: 2.77 mg/kg/injection, schedule: Q01DX009 (ip), vehicle: saline): 204 % of control
T/C (dose: 3.0 mg/kg/injection, schedule: Q01DX009 (ip), vehicle: saline): 177 % of control
T/C (dose: 4.17 mg/kg/injection, schedule: Q01DX009 (ip), vehicle: saline): 191 % of control
T/C (dose: 6.25 mg/kg/injection, schedule: Q01DX009 (ip), vehicle: saline): 183 % of control and 220 % of control
T/C (dose: 9.38 mg/kg/injection, schedule: Q01DX009 (ip), vehicle: saline): 237 % of control
T/C (dose: 11.0 mg/kg/injection, schedule: Q04DX003 (ip), vehicle: saline): 168 % of control
T/C (dose: 12.5 mg/kg/injection, schedule: Q01DX009 (ip), vehicle: saline): 295 % of control
T/C (dose: 16.5 mg/kg/injection, schedule: Q04DX003 (ip), vehicle: saline): 200 % of control
T/C (dose: 25.0 mg/kg/injection, schedule: Q01DX009 (ip), vehicle: saline): 90 % of control
T/C (dose: 25.0 mg/kg/injection, schedule: Q04DX003 (ip), vehicle: saline): 200 % of control
T/C (dose: 37.5 mg/kg/injection, schedule: Q04DX003 (ip), vehicle: saline): 181 % of control

Nc1ncc([N+](=O)[O-])cn1
T/C [12]: 95 % of control
T/C [13]: 90 % of control
